Some test systems named below: OVCAR-5 ovarian; NCI/ADR-RES ovarian; U251 CNS; SK-MEL-28 melanoma; NCI-H23 lung; 786-0 renal; HS 578T breast; HOP-18 NSCLC; LXFL 529 NSCLC; DLD-1 colon; DMS 114 small cell lung; XF 498 CNS; SNB-78 CNS; M19-MEL melanoma.
Holding throughout (experiment): NCI tumour cell line growth inhibition, 48 h

SMILES strings stand for the structures.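 Assay format: 96-well plates, 48-hour exposure. Abbreviation: GI50, concentration required for 50% inhibition of growth. TGI denotes the concentration required for complete inhibition of growth.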 Where only a bound is given, the exact number is not on record here.

The results in this text go back to PubChem BioAssay (NCI).

On to `Nc1ccc2c3c(n(CCCCl)c(=O)c2c1)-c1cc2c(cc1C3=O)OCO2`, for which the GI50 in the assay on OVCAR-5 ovarian is more than 100 µM; in the assay with NCI/ADR-RES ovarian, more than 100000 nM; in the assay on U251 CNS it was more than 100000 nM; in the assay on SK-MEL-28 melanoma, more than 100000 nM; with NCI-H23 lung, 562 nM. Besides, the TGI is more than 100 µM with OVCAR-5 ovarian; more than 100 µM with NCI/ADR-RES ovarian; more than 100 µM with U251 CNS; more than 100 µM in the assay with SK-MEL-28 melanoma; 25.8 µM in the assay with NCI-H23 lung.

`COc1ccc2c(c1)N=C1CSC(c3cccc(Br)c3)N1C2` (stereo not drawn): the TGI with 786-0 renal was 35.1 µM; in the assay on OVCAR-5 ovarian it was 56.8 µM; in the assay with NCI/ADR-RES ovarian, 58 µM; in the assay on U251 CNS, 44.3 µM; in the assay on HS 578T breast it was 96.7 µM; in the assay on SK-MEL-28 melanoma, more than 100 µM. Moreover, in the assay on NCI-H23 lung, the TGI is 45.3 µM.

Regarding `Cc1cccc2[s+]snc12`, the TGI in the assay on 786-0 renal was more than 100 µM; in the assay on OVCAR-5 ovarian, more than 100 µM; with U251 CNS, more than 100 µM; with HOP-18 NSCLC, more than 100 µM; in the assay on LXFL 529 NSCLC, more than 92.5 µM; with DLD-1 colon, 74.9 µM. Besides, the TGI in the assay on DMS 114 small cell lung was more than 100 µM; in the assay with XF 498 CNS it was more than 100 µM; in the assay on SNB-78 CNS, more than 100 µM; in the assay on SK-MEL-28 melanoma, more than 70.7 µM; in the assay on M19-MEL melanoma, more than 100 µM; in the assay on NCI-H23 lung, more than 100 µM.

With `NC(CCP(=O)(O)CCC1C=CC=CC1)C(=O)O` (stereo not drawn), the TGI with OVCAR-5 ovarian, in the assay with NCI/ADR-RES ovarian, in the assay with U251 CNS, with HS 578T breast, in the assay on SK-MEL-28 melanoma and in the assay on NCI-H23 lung was more than 100 µM each time.

Consider `CC(C)(C)[Si](C)(C)OCC1CCC(n2cnc3c(N)ncnc32)O1` (stereo not drawn), for which the TGI in the assay with OVCAR-5 ovarian, in the assay with U251 CNS, with HS 578T breast, in the assay on SK-MEL-28 melanoma and with NCI-H23 lung was more than 100 µM in each case.

Regarding `O=[N+]([O-])c1ccc(Nc2nc3ccccc3s2)cc1`, the TGI is 84.6 µM in the assay with OVCAR-5 ovarian; more than 100 µM with NCI/ADR-RES ovarian; 39.3 µM with U251 CNS; more than 100 µM with HS 578T breast; more than 100 µM in the assay on SK-MEL-28 melanoma; 34.5 µM in the assay with NCI-H23 lung.

For `NNc1nc2ccccc2s1`, the TGI in the assay on 786-0 renal, in the assay with OVCAR-5 ovarian, in the assay with NCI/ADR-RES ovarian, with U251 CNS, with HS 578T breast and with SK-MEL-28 melanoma was more than 100 µM throughout. Besides, in the assay on NCI-H23 lung, the TGI was more than 100 µM.

For `CCOC(=O)/C(C#N)=C1\c2c([nH]c(=S)[nH]c2=O)Oc2ccc3ccccc3c21`, the TGI with 786-0 renal was more than 100 µM; in the assay with OVCAR-5 ovarian, more than 100 µM; in the assay with NCI/ADR-RES ovarian, more than 100 µM; in the assay with U251 CNS, more than 100 µM; in the assay on HS 578T breast it was more than 100 µM; in the assay with SK-MEL-28 melanoma it was 3.81 µM. This molecule also displayed a TGI with NCI-H23 lung of more than 100 µM.

For `Cc1ccc(Nc2nc(N)nc3c2ncn3C2OC(CO)C(O)C2O)cc1` (stereo not drawn), the TGI in the assay on 786-0 renal, in the assay with OVCAR-5 ovarian, in the assay on NCI/ADR-RES ovarian, with U251 CNS, in the assay with SK-MEL-28 melanoma and in the assay on NCI-H23 lung was more than 100 µM each time.

In the case of `c1cn2cc(-c3ccc4ncn(C5CCCCC5)c4c3)nc(-c3ccc4c(c3)ncn4C3CCCCC3)c2n1`, the GI50 with NCI/ADR-RES ovarian is 2340 nM; in the assay with U251 CNS, 1910 nM; in the assay with HS 578T breast it was 2390 nM; in the assay with SK-MEL-28 melanoma it was 1810 nM. The TGI in the assay with NCI/ADR-RES ovarian came out at 7.33 µM; in the assay on U251 CNS, 3.65 µM; with HS 578T breast, 6.74 µM; in the assay on SK-MEL-28 melanoma, 3.41 µM.

Turning to `COC1CC(OC2CCC3(C)C(CCC45CCC(C6=CC(=O)OC6)C(C)(CCC43)C5=O)C2)OC(C)C1O` (stereo not drawn), the TGI with 786-0 renal was 64.8 µM; in the assay with OVCAR-5 ovarian, more than 100 µM; in the assay with NCI/ADR-RES ovarian, more than 100 µM; in the assay with U251 CNS it was more than 100 µM; with HS 578T breast, more than 100 µM; with SK-MEL-28 melanoma, more than 100 µM. Also, the TGI in the assay with NCI-H23 lung was 48.3 µM.

For the molecule `CCC(=O)NC(Nc1ccc(O)cc1)(C(F)(F)F)C(F)(F)F`, the TGI with OVCAR-5 ovarian, in the assay with U251 CNS, in the assay with HS 578T breast, in the assay on SK-MEL-28 melanoma and in the assay with NCI-H23 lung was more than 100 µM throughout.

Consider `CC12CCC(C(=O)N3CC=CCC3)(OC1=O)C2(C)C` (stereo not drawn), for which the TGI in the assay on OVCAR-5 ovarian, with NCI/ADR-RES ovarian, in the assay on U251 CNS, in the assay with HOP-18 NSCLC, in the assay with DLD-1 colon and with DMS 114 small cell lung was more than 100 µM in each case. Further, the TGI with XF 498 CNS, in the assay with SNB-78 CNS, with SK-MEL-28 melanoma, in the assay on M19-MEL melanoma and in the assay with NCI-H23 lung was more than 100 µM in each case.

Regarding `C/C(=N/O)c1cccc(Nc2nc3ccc(Cl)cc3c3[nH]c4ccccc4c23)c1`, the TGI in the assay on 786-0 renal was found to be 5.22 µM; in the assay on OVCAR-5 ovarian it was 6.83 µM; in the assay on NCI/ADR-RES ovarian, 6.26 µM; in the assay with U251 CNS it was 9.94 µM; in the assay on HS 578T breast, 7.09 µM; with SK-MEL-28 melanoma, 5.25 µM. This molecule also yielded a TGI in the assay on NCI-H23 lung of 4.24 µM.

Turning to `CC1=CC(=O)C(=O)C2=C1OC1(C2)C(C)CCC2C3(C)CCC(O)C(C)(C)C3CCC21C` (stereo not drawn), the TGI was 33.3 µM in the assay with 786-0 renal; 37.2 µM with OVCAR-5 ovarian; 29.9 µM in the assay on U251 CNS; 33.6 µM with LXFL 529 NSCLC; 41.8 µM with DLD-1 colon; 33.6 µM in the assay on DMS 114 small cell lung. Besides, the TGI with XF 498 CNS was 34 µM; in the assay on SNB-78 CNS it was 64.6 µM; in the assay with SK-MEL-28 melanoma, 42.9 µM; in the assay with M19-MEL melanoma, 34.4 µM; in the assay on NCI-H23 lung, 31.3 µM.

`O=C(O)C1Cc2c([nH]c3ccccc23)C=N1` (stereo not drawn): the TGI with OVCAR-5 ovarian, with NCI/ADR-RES ovarian, with U251 CNS, with HOP-18 NSCLC, in the assay with DLD-1 colon and in the assay with DMS 114 small cell lung was more than 100 µM each time. The TGI with XF 498 CNS, in the assay with SNB-78 CNS, in the assay on SK-MEL-28 melanoma, in the assay on M19-MEL melanoma and with NCI-H23 lung was more than 100 µM each time.

For the molecule `N=C(N)c1csc([C@@H]2O[C@H](CO)[C@@H](O)[C@H]2O)n1`, the TGI in the assay with U251 CNS, in the assay with HOP-18 NSCLC, in the assay with LXFL 529 NSCLC, with DLD-1 colon, with XF 498 CNS and with SNB-78 CNS was more than 100 µM in each case. Moreover, the TGI in the assay with SK-MEL-28 melanoma, with M19-MEL melanoma and with NCI-H23 lung was more than 100 µM in each case.

As for `NC(=O)C(c1ccccc1)N1OC2C(=O)N(c3cccc4ccccc34)C(=O)C2C1c1c2ccccc2c(Cl)c2ccccc12` (stereo not drawn), the TGI was 21.4 µM in the assay with 786-0 renal; 19.3 µM in the assay on OVCAR-5 ovarian; 28.2 µM in the assay on NCI/ADR-RES ovarian; 15.9 µM in the assay on U251 CNS; more than 50 µM with HS 578T breast; 34.6 µM in the assay on SK-MEL-28 melanoma. This molecule returned a TGI in the assay with NCI-H23 lung of 26 µM.

Take `C(=NCc1ccccc1)c1ccccc1-c1ccccc1C=NCc1ccccc1`: the TGI with 786-0 renal, with OVCAR-5 ovarian, in the assay on NCI/ADR-RES ovarian, in the assay with U251 CNS, in the assay on SK-MEL-28 melanoma and in the assay on NCI-H23 lung was more than 10 µM in each case.

For `COc1cc(C2=C(C#N)C(N)OC3=C2COc2ccccc23)cc(OC)c1OC` (stereo not drawn), the TGI was more than 100 µM in the assay with OVCAR-5 ovarian; more than 100 µM in the assay with NCI/ADR-RES ovarian; 33.2 µM with U251 CNS; more than 100 µM in the assay on SK-MEL-28 melanoma; more than 100 µM in the assay on NCI-H23 lung.
